This passage reports EC50 results from US20120157401A1, “METHODS FOR TREATING NEUROFIBROMATOSIS” (PTC Therapeutics, Inc., priority 2009, published 2012).

The first experiment concerns hypoxia-inducible endogenous VEGF expression. In words: Hypoxia-inducible endogenous VEGF expression ELISA in HeLa cells, dose-response EC50 (Table 3). Format: cell-based, human. The note with it: Homo sapiens, HeLa, read-out: ELISA EC50 μM. The gist of the method:
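HeLa cells kept 24-48 h under hypoxia (1% O2, 5% CO2, nitrogen balance) with or without compound, e.g. seven concentrations; secreted VEGF in conditioned medium quantified by ELISA against a standard curve. Parallel Cell Titer Glo viability under identical conditions excludes cytotoxicity.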
In the case of `O=C(Oc1ccc(Cl)cc1)N1CCc2c([nH]c3ccc(Cl)cc23)C1c1ccc(OCCCN2CCOCC2)cc1` (stereo not drawn) [Compound 894], the EC50 is less than 0.008 µM. Still for that read-out and setting: with `CC(=O)N1CCN(CCCOc2ccc(C3c4[nH]c5ccc(Cl)cc5c4CCN3C(=O)Oc3ccc(Cl)cc3)cc2)CC1` (stereo not drawn) [Compound 903] the figure was less than 0.008 µM; with `O=C(Oc1ccc(Cl)cc1)N1CCc2c([nH]c3ccc(Cl)cc23)C1c1ccc(OCC(O)CN2CCOCC2)cc1` (stereo not drawn) [Compound 904], less than 0.008 µM. Regarding `COCCN(C)CCCOc1ccc(C2c3[nH]c4ccc(Cl)cc4c3CCN2C(=O)Oc2ccc(Cl)cc2)cc1` (stereo not drawn) [Compound 908], the EC50 was less than 0.008 µM. On the same count and under the same terms, next, `COCCN(CCOC)CC(O)COc1ccc(C2c3[nH]c4ccc(Cl)cc4c3CCN2C(=O)Oc2ccc(F)cc2)cc1` (stereo not drawn) [Compound 913]: less than 0.008 µM. On the same count and under the same terms, with `COCCN(CCCOc1ccc(C2c3[nH]c4ccc(Cl)cc4c3CCN2C(=O)Oc2ccc(Cl)cc2)cc1)CCOC` (stereo not drawn) [Compound 916] the figure was less than 0.008 µM; with `COCCN(CCOC)CC(O)COc1ccc(C2c3[nH]c4ccc(Cl)cc4c3CCN2C(=O)Oc2ccc(Cl)cc2)cc1` (stereo not drawn) [Compound 918], less than 0.008 µM. For `O=C(Oc1ccc(Cl)cc1)N1CCc2c([nH]c3ccc(Cl)cc23)C1c1ccc(OCC(O)CN2CCSCC2)cc1` (stereo not drawn) [Compound 923], the EC50 was less than 0.008 µM.

Take `O=C(Oc1ccc(F)cc1)N1CCc2c([nH]c3ccc(Cl)cc23)C1c1ccc(OCC(O)CN2CCSCC2)cc1` (stereo not drawn) [Compound 925]: the EC50 is less than 0.008 µM. Turning to `CN1CCCC(COc2ccc(C3c4[nH]c5ccc(Cl)cc5c4CCN3C(=O)Oc3ccc(F)cc3)cc2)C1` (stereo not drawn) [Compound 932], the concentration giving a half-maximal response (EC50) was less than 0.008 µM. Consider `O=C(Oc1ccc(Cl)cc1)N1CCc2c([nH]c3ccc(Cl)cc23)C1c1ccc(OCCCN2CCSCC2)cc1` (stereo not drawn) [Compound 933], for which the EC50 is less than 0.008 µM. For `COCCN(C)CC(O)COc1ccc(C2c3[nH]c4ccc(Cl)cc4c3CCN2C(=O)Oc2ccc(F)cc2)cc1` (stereo not drawn) [Compound 936], the EC50 was less than 0.008 µM. The same measure, in the same setting: with `CCN(CC)CC(O)COc1ccc(C2c3[nH]c4ccc(Cl)cc4c3CCN2C(=O)Oc2ccc(Cl)cc2)cc1` (stereo not drawn) [Compound 938] the figure was less than 0.008 µM; with `O=C(Oc1ccc(Cl)cc1)N1CCc2c([nH]c3ccc(Cl)cc23)C1c1ccc(OCCCN2CCN(CCO)CC2)cc1` (stereo not drawn) [Compound 942], 0.008 to 0.04 µM; with `CCN(CC)CCCOc1ccc(C2c3[nH]c4ccc(Cl)cc4c3CCN2C(=O)Oc2ccc(Cl)cc2)cc1` (stereo not drawn) [Compound 946], 0.008 to 0.04 µM.

As to `Cc1ccc(OC(=O)N2CCc3c([nH]c4ccc(Cl)cc34)C2c2ccc(OCC3CCCN(C)C3)cc2)cc1` (stereo not drawn) [Compound 951], the EC50 is 0.008 to 0.04 µM. With `CN1CCCC(COc2ccc(C3c4[nH]c5ccc(Cl)cc5c4CCN3C(=O)Oc3ccccc3)cc2)C1` (stereo not drawn) [Compound 952], the EC50 was 0.008 to 0.04 µM.

On to `CC(C)NCCCOc1ccc(C2c3[nH]c4ccc(Cl)cc4c3CCN2C(=O)Oc2ccc(Cl)cc2)cc1` (stereo not drawn) [Compound 953], for which the EC50 lay within 0.008 to 0.04 µM. On the same count and under the same terms, with `O=C(Oc1ccc(Cl)cc1)N1CCc2c([nH]c3ccc(Cl)cc23)C1c1ccc(OCC(O)CN2CCN(CCO)CC2)cc1` (stereo not drawn) [Compound 960] the figure was 0.008 to 0.04 µM; with `CN1CCN(CCCOc2ccc(C3c4[nH]c5ccc(Cl)cc5c4CCN3C(=O)Oc3ccc(Cl)cc3)cc2)CC1` (stereo not drawn) [Compound 961], 0.008 to 0.04 µM.

Turning to `CN1CCN(CC(O)COc2ccc(C3c4[nH]c5ccc(Cl)cc5c4CCN3C(=O)Oc3ccc(F)cc3)cc2)CC1` (stereo not drawn) [Compound 963], the EC50 lay within 0.008 to 0.04 µM. Still for that read-out and setting: next, `COCCN(C)CC(O)COc1ccc(C2c3[nH]c4ccc(Cl)cc4c3CCN2C(=O)Oc2ccc(Cl)cc2)cc1` (stereo not drawn) [Compound 964]: 0.008 to 0.04 µM; `CN1CCCC(COc2ccc(C3c4[nH]c5ccc(Cl)cc5c4CCN3C(=O)Oc3ccc(Cl)cc3)cc2)C1` (stereo not drawn) [Compound 966]: 0.008 to 0.04 µM; `CN1CCN(CC(O)COc2ccc(C3c4[nH]c5ccc(Cl)cc5c4CCN3C(=O)Oc3ccc(Cl)cc3)cc2)CC1` (stereo not drawn) [Compound 970]: 0.008 to 0.04 µM. Take `CN1CCCC(COc2ccc(C3c4[nH]c5ccc(Cl)cc5c4CCN3C(=O)Oc3ccccc3Cl)cc2)C1` (stereo not drawn) [Compound 976]: the EC50 fell in the range of 0.04 to 0.2 µM. On the same count and under the same terms, next, `CC(C)NCC(O)COc1ccc(C2c3[nH]c4ccc(Cl)cc4c3CCN2C(=O)Oc2ccc(Cl)cc2)cc1` (stereo not drawn) [Compound 977]: 0.04 to 0.2 µM. Still for that read-out and setting: next, `COc1ccc(OC(=O)N2CCc3c([nH]c4ccc(Cl)cc34)C2c2ccc(OCC3CCCN(C)C3)cc2)cc1` (stereo not drawn) [Compound 981]: 0.04 to 0.2 µM.

Still in this experiment, the particulars now being: Homo sapiens; HeLa cells, hypoxic conditions (1% O2), 24-48 hours, VEGF in conditioned media; read-out: ELISA EC50.
`O=C(Oc1ccc(F)cc1)N1CCc2c([nH]c3ccc(Cl)cc23)C1c1ccc(OCCCn2ccnc2)cc1` (stereo not drawn) [Compound 889]: the EC50 is less than 0.008 µM. For `O=C(Oc1ccccc1)N1CCc2c([nH]c3ccc(Cl)cc23)C1c1ccc(OCCCn2cncn2)cc1` (stereo not drawn) [Compound 891], the EC50 was less than 0.008 µM. In the case of `O=C(Oc1ccc(F)cc1)N1CCc2c([nH]c3ccc(Cl)cc23)C1c1ccc(OCCCn2cncn2)cc1` (stereo not drawn) [Compound 892], the EC50 is less than 0.008 µM.

In the case of `Cc1ccc(OC(=O)N2CCc3c([nH]c4ccc(Cl)cc34)C2c2ccc(OCCCn3ccnc3)cc2)cc1` (stereo not drawn) [Compound 900], the EC50 is less than 0.008 µM. As to `O=C(Oc1ccccc1)N1CCc2c([nH]c3ccc(Cl)cc23)C1c1ccc(OCCCn2ccnc2)cc1` (stereo not drawn) [Compound 911], the half-maximal effective concentration (EC50) was less than 0.008 µM. Consider `Cc1ccc(OC(=O)N2CCc3c([nH]c4ccc(Cl)cc34)C2c2ccc(OCCCCl)cc2)cc1` (stereo not drawn) [Compound 915], for which the EC50 is less than 0.008 µM. The same measure, in the same setting: next, `O=C(Oc1ccc(Cl)cc1)N1CCc2c([nH]c3ccc(Cl)cc23)C1c1ccc(OCCCn2ccnc2)cc1` (stereo not drawn) [Compound 917]: less than 0.008 µM; `COc1ccc(OC(=O)N2CCc3c([nH]c4ccc(Cl)cc34)C2c2ccc(OCCCn3ccnc3)cc2)cc1` (stereo not drawn) [Compound 920]: less than 0.008 µM. For `O=C(Oc1ccc(Cl)cc1)N1CCc2c([nH]c3ccc(Cl)cc23)C1c1ccc(OCCCCl)cc1` (stereo not drawn) [Compound 921], the EC50 was less than 0.008 µM. On the same count and under the same terms, next, `O=C(Oc1ccc(F)cc1)N1CCc2c([nH]c3ccc(Cl)cc23)C1c1ccc(OCC(O)Cn2ccnc2)cc1` (stereo not drawn) [Compound 922]: less than 0.008 µM.

As for `O=C(Oc1ccccc1Cl)N1CCc2c([nH]c3ccc(Cl)cc23)C1c1ccc(OCCCn2cncn2)cc1` (stereo not drawn) [Compound 926], the EC50 was less than 0.008 µM. For `O=C(Oc1ccccc1Cl)N1CCc2c([nH]c3ccc(Cl)cc23)C1c1ccc(OCCCn2ccnc2)cc1` (stereo not drawn) [Compound 934], the EC50 is less than 0.008 µM. For the molecule `O=C(Oc1ccc(F)cc1)N1CCc2c([nH]c3ccc(Cl)cc23)C1c1ccc(OCC(O)Cn2ccnn2)cc1` (stereo not drawn) [Compound 941], the EC50 is less than 0.008 µM.

Take `COc1ccc(OC(=O)N2CCc3c([nH]c4ccc(Cl)cc34)C2c2ccc(OCCCCl)cc2)cc1` (stereo not drawn) [Compound 944]: the half-maximal effective concentration (EC50) is 0.008 to 0.04 µM.

As to `CCS(=O)(=O)Nc1ccc(C2c3[nH]c4ccc(Cl)cc4c3CCN2C(=O)Oc2ccc(Cl)cc2)cc1` (stereo not drawn) [Compound 958], the concentration for a half-maximal effect (EC50) fell in the range of 0.008 to 0.04 µM. `O=C(Oc1ccc(F)cc1)N1CCc2c([nH]c3ccc(Cl)cc23)C1c1ccc(OCC2CO2)cc1` (stereo not drawn) [Compound 967]: the concentration giving a half-maximal response (EC50) lay within 0.008 to 0.04 µM. With `O=C(Oc1ccc(Cl)cc1)N1CCc2c([nH]c3ccc(Cl)cc23)C1c1ccc(OCC(O)Cn2ccnn2)cc1` (stereo not drawn) [Compound 973], the EC50 was 0.008 to 0.04 µM.

With `CS(=O)(=O)Nc1ccc(C2c3[nH]c4ccc(Cl)cc4c3CCN2C(=O)Oc2ccc(Cl)cc2)cc1` (stereo not drawn) [Compound 974], the EC50 was in the range of 0.04 to 0.2 µM.
